{"source": "patent US20250090554A1", "about": "“A METHOD OF TREATING DEPRESSION BY IMMUNE MODULATION” (MYND LIFE SCIENCES INC., priority 2021, published 2025)", "key": {"ABCF1 [1]": {"system": "ABCF1", "experiment": "ABCF1 expression in bone marrow after in vivo drug treatment of mice", "set-up": "species or system mice (C57Bl/6)", "conditions": "for ABCF1 expression levels increased in bone marrow (fold): 30 mins treatment in vivo", "method": "• Species strain: C57Bl/6 • Tissues collected: Brain, Bone marrow, PBMC • Drug treatment: • a. 30 minutes Drug treatment (PBS control, Escitalopram 50 mg/kg, Psilocybin 25 mg/kg) • b. 30 minutes Drug treatment after 30 minutes LPS stimulation (PBS control, Escitalopram 50 mg/kg, O-Acetyl Psilocin Fumarate (APF) 25 mg/kg, 4-AcetoxyIndole (AOI) 2.5 mg/kg, 4-AcO-DET (AODET) 25 mg/kg) • Method: • Weighed and injected the drug into the mice by Intraperitoneal injection. • Euthanized the mice 30 minutes after injections with isoflurane and CO2 • Post cervical Dislocation performed cardiac puncture to collect the whole blood from mice. • Opened the cephalic bone to collect the whole brain. • Removed the skin and muscles, took out both femur and tibia for bone marrow collection. • Tissue process procedures: • Brain—flash frozen and stored hemisphere in-80 for further molecular experiments and sent another part with buffer for sequencing. The frozen Brains were Dounce-homogenized. […]"}, "ABCF1 [2]": {"system": "ABCF1", "experiment": "ABCF1 real time RT-PCR in RAW macrophage cell line treated with drugs", "assay_type": "cell-based, murine", "method": "(§1) FIG. 1 illustrates that Escitalopram induces ABCF1 in a Macrophage cell line: RAW macrophages were plated at 1×10^5 cells/well and cultured for 2 days. The cells were incubated with 0.3 mM Escitalopram for 1 hour, and then harvested for total RNA, which was extracted for real time RT-PCR specific for ABCF1 and IL-4. CT values were normalized with CT value for the housekeeping gene from the DMSO control. The difference in the expression after drug treatment is consistent with polarization towards an M2-like phenotype (data were consistent in 3 separate experiments).\nFIG. 2 illustrates the effect of psylocibin, psylocin and their analogs on ABCF1 transcription in a macrophage cell line. Briefly, the Macrophage cell line RAW264.7 (ATCC) were grown to 80% confluency in growth media (DMEM+10% FBS+glutamine). Dilutions of psylocibin, psylocin and their analogs were made at desired final concentrations for a Dose response experiment. The concentrations' used for this experiment are: 10 nM, 100 nM, 500 nM for Psilocin, Psylocibin, 4-Acetoxy-N, N-dimthyltryptamine, O-Acetyl Psilocin Fumerate, and 4-acetoxyindole. The cells were incubated for 2 hours and then harvested for total RNA, which was extracted for real time RT-PCR specific for ABCF1. Untreated cells were used as negative control and Escitalopram at 0.3 mM was used as a positive control to activate ABCF1 expression for all the experiments. ES=escitalopram; PSYB=Psylocibin; PSIC=Psilocin; DMT=4-Acetoxy-N, N-dimthyltryptamine; APF=O-Acetyl Psilocin Fumerate, and AOI=4-acetoxyindole.\n• 1. Macrophage cell line RAW264.7 (ATCC) were grown to 80% confluency in growth media (DMEM+10% FBS+glutamine). • 2. Dilutions of the drugs were made at desired final concentrations for a Dose response experiment. The concentrations' used for this experiment are: 10 nM, 100 nM, 500 nM for Psilocin, Psylocibin, 4-Acetoxy-N, N-dimthyltryptamine, O-Acetyl Psilocin Fumerate, and 4-acetoxyindole. • 3. A time course response experiment was done for the above stated drugs at concentrations mentioned above (10 nM, 100 nM, 500 nM). The time points chosen were 0, 30 mins, 2 hours and 24 hour. • 4. Untreated cells were used as negative control and Escitalopram at 0.3 mM was used as a positive control to activate ABCF1 expression for all the experiments. Analysis by qPCR:\n• 1. Post treatment with drugs at different time points, the reaction was stopped by removing the media with the drug. Cells were then collected and RNA was isolated from these. • 2. After checking the quality of the RNA, cDNA was generated and qPCR was run with ABCF1 primers as the target gene and GAPDH as the house keeping gene. • 3. Normalized against the expression level of GAPDH, the fold change expression level of ABCF1 was calculated and tabulated for all treatment conditions."}, "IL-4": {"system": "IL-4", "experiment": "IL-4 real time RT-PCR in RAW macrophages treated with Escitalopram", "assay_type": "cell-based, murine", "conditions": "FIG. 1: 0.3 mM Escitalopram for 1 hour", "method": "as §1"}, "ABCF1 [3]": {"system": "ABCF1", "experiment": "ABCF1 expression in whole brain after in vivo drug treatment of mice", "set-up": "species or system mice (C57Bl/6)", "conditions": "Escitalopram 50 mg/kg, psilocybin 25 mg/kg, 30 minutes"}, "ABCF1 [4]": {"system": "ABCF1", "conditions": "peripheral blood mononuclear cells of patients; cited from earlier work"}}, "data": [{"smiles": "CN(C)CCc1c[nH]c2cccc(OP(=O)(O)O)c12", "note": "[Psilocybin, [3-(2-Dimethylaminoethyl)-1H-indol-4-yl] dihydrogen phosphate]", "values": [{"measurement": "ABCF1 expression levels increased in bone marrow (fold)", "setting": "ABCF1 [1]", "result": 2, "unit": "folds"}]}, {"smiles": "CCCCCc1cc(O)c(C/C=C(\\C)CCC=C(C)C)c(O)c1", "note": "[Cannabigerol]", "values": [{"measurement": "ABCF1 expression levels increased (fold)", "setting": "ABCF1 [2]; RAW264.7 cells, post 2 hr treatment with 100 nM", "result": 8, "unit": "folds"}]}, {"smiles": "CN(C)CCC[C@@]1(c2ccc(F)cc2)OCc2cc(C#N)ccc21", "note": "[Escitalopram]", "values": [{"measurement": "IL-4 induction (fold) in the macrophage cell line", "setting": "IL-4", "result": "approximately 5 fold"}, {"measurement": "ABCF1 expression in the bone marrow", "setting": "ABCF1 [1]; Escitalopram 50 mg/kg, psilocybin 25 mg/kg, mice, 30 minutes", "result": "induces ABCF1 expression"}, {"measurement": "ABCF1 expression levels increased in bone marrow (fold)", "setting": "ABCF1 [1]", "result": 6, "unit": "folds"}, {"measurement": "ABCF1 expression in the whole brain", "setting": "ABCF1 [3]", "result": "induce ABCF1 expression"}, {"measurement": "ABCF1 expression in RAW macrophages cell cultures", "setting": "ABCF1 [2]; Escitalopram 0.6 nM, Psilocybin 500 nM, 2 hrs, vs untreated control", "result": "induces ABCF1 expression"}, {"measurement": "ABCF1 induction in a macrophage cell line", "setting": "ABCF1 [2]; RAW macrophages, 0.3 mM Escitalopram, 1 hour", "result": "induces ABCF1"}, {"measurement": "ABCF1 induction (fold) in the macrophage cell line", "setting": "ABCF1 [2]; RAW macrophages, FIG. 1: 0.3 mM Escitalopram for 1 hour", "result": "approximately 20 fold"}, {"measurement": "ABCF1 transcription in PBMCs of patients responding to treatment", "setting": "ABCF1 [4]", "result": "increased the transcription"}]}]}
